Results on 35 compounds are retold here after ChEMBL document CHEMBL4673215, “Discovery of DS42450411 as a potent orally active hepcidin production inhibitor: Design and optimization of novel 4-aminopyrimidine derivatives” (Bioorg Med Chem Lett, 2018).

Data set [1] in a line: Inhibition of BMP6-stimulated hepcidin production in human HepG2 cells.
Data set [2] has as its target Dual specificity tyrosine-phosphorylation-regulated kinase 1B (Homo sapiens) (UniProt Q9Y463). Description: Inhibition of DYRK1b (unknown origin) at 0.5 uM.
For data set [3], the target named is Dual specificity protein kinase CLK2 (Homo sapiens) (UniProt P49760). Kind of data set: Inhibition of CLK2 (unknown origin) at 0.5 uM.
Chain of Dual specificity protein kinase CLK2 (Homo sapiens) (P49760 whole entry, looked up): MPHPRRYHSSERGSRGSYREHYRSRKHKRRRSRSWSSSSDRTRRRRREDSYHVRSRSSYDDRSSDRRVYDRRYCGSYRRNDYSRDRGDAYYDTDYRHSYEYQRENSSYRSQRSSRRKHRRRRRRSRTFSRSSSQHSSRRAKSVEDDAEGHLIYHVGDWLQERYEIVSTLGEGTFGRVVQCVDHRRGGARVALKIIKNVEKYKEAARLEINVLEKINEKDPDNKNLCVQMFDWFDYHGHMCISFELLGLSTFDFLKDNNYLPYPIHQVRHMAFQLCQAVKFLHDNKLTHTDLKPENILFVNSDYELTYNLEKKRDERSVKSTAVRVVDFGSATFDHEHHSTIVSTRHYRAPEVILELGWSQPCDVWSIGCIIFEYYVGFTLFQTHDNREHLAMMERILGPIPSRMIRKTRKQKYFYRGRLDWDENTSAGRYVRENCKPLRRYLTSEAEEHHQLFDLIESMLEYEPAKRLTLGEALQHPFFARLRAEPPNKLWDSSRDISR
The nature of data set [4]: Half life in C57BL/6J mouse at 30 mg/kg, po. The data set is classed as ADME, organism-based. Particulars: in vivo.
The nature of data set [5]: Lipophilicity, logD of the compound. The note with it: octanol/water. Type of data set: physicochemical.
A short description of data set [6]: Clearance in C57BL/6J mouse at 30 mg/kg, po. Type of data set: ADME, organism-based. The note with it: in vivo.
Data set [7] has as its target T1, Activin receptor type-1 (Homo sapiens) (UniProt Q04771).
T1 sequence (whole entry): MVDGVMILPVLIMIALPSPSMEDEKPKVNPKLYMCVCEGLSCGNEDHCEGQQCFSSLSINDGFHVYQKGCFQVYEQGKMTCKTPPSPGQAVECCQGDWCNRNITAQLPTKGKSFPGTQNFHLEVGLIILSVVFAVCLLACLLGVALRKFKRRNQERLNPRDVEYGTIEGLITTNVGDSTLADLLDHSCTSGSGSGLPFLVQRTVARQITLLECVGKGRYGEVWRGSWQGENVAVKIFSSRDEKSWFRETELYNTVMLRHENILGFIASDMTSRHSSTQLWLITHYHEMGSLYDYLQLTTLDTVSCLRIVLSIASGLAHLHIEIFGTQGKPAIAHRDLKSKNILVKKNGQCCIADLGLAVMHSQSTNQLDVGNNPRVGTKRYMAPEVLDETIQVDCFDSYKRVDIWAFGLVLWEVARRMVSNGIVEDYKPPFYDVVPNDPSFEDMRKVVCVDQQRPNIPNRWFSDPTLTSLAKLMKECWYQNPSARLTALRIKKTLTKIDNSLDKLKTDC
Kind of data set: Inhibition of ALK2 (unknown origin) at 30 uM.

Data set [8] can be described thus: Cmax in C57BL/6J mouse at 30 mg/kg, po. Type of data set: ADME, organism-based. Further details: route oral, dose 30 mg/kg. Particulars: in vivo.
Data set [9] can be described thus: Protein binding in plasma (unknown origin) assessed as unbound fraction. Type of data set: ADME, cell-free.
Data set [10] can be described thus: Tmax in C57BL/6J mouse at 30 mg/kg, po. Particulars: in vivo. Type of data set: ADME, organism-based.
The next data set deals with Mus musculus. Kind of data set: Inhibition of IL6-induced hepcidin production in C57BL/6J mouse serum at 30 mg/kg, po administered 30 mins prior to IL6 challenge and measured after 4 hrs. The data set is classed as functional, organism-based. The note with it: time 270.0 min.
Data set [11] in a line: AUC in C57BL/6J mouse at 30 mg/kg, po. Particulars: in vivo. The data set is classed as ADME, organism-based. Also on record: dose 30 mg/kg.
In data set [12] the target is Dual specificity tyrosine-phosphorylation-regulated kinase 1A (Homo sapiens, UniProt Q13627). Kind of data set: Inhibition of DYRK1a (unknown origin).

As usually defined, the IC50 is the midpoint of a concentration-inhibition curve. Broadly, the half-life is the time needed for the level to fall by half in the phase considered. Read a low half-life as rapid decline. A word on the logD: it is lipophilicity at a set pH, counting ionised and neutral species. A lower logD goes with a more hydrophilic compound. Broadly, the CL/F is the apparent clearance, not corrected for the fraction that reaches the circulation. For orientation: Cmax means the highest concentration seen after dosing. By fraction unbound is commonly meant free concentration divided by total concentration. For orientation: Tmax means the time from dosing to the highest level. One may read the AUC as the area under the concentration-time curve, a measure of exposure. The low end stands for low exposure, the high end for high exposure.

Activity calls are given as the source filed them.

Chain of Dual specificity tyrosine-phosphorylation-regulated kinase 1B (Homo sapiens) (Q9Y463 whole entry, looked up): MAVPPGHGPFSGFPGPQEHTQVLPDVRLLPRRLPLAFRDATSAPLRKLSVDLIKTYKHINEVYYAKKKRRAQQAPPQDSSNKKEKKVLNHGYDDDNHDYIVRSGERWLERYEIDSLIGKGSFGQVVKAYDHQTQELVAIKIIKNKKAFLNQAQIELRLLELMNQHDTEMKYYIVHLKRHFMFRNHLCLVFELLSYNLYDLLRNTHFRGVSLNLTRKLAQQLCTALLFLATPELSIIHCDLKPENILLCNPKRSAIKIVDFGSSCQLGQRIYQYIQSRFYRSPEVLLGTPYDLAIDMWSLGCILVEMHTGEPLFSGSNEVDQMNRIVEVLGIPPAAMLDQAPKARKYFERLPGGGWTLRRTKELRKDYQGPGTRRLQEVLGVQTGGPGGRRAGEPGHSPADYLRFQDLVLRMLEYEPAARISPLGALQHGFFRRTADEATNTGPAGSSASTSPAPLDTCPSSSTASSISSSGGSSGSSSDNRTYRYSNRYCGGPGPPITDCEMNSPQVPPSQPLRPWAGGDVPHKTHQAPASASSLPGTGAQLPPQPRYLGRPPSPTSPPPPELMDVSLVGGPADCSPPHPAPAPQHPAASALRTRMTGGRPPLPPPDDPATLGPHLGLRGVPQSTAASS

In the case of `C=C(c1ccc2c(c1)CC(C)(C)c1c(N)ncnc1-2)[C@H]1CCC[C@H](N)C1`, the IC50 in [1] amounted to 42 nM. In [1], `COc1ccc2c(c1)CC(C)(C)c1c(N)n[nH]c1-2` registered an IC50 of more than 30000 nM.

In [1], `CC(c1ccc2c(c1)CC(C)(C)c1c(N)ncnc1-2)C1CCNCC1` (racemic) gave an IC50 of 73 nM. The same measure, in the same setting: under `Cc1ccc2c(c1)CC(C)(C)c1c(N)ncnc1-2` stands 600 nM; under `Nc1ncnc2c1C1(CCCC1)Cc1ccccc1-2`, 4200 nM; under `CC(C)Oc1ccc2c(c1)CC(C)(C)c1c(N)ncnc1-2`, 490 nM. Same read-out and setting: the figure for `CC1(C)Cc2cc(OCCO)ccc2-c2ncnc(N)c21` is 1100 nM; for `CC1(C)Cc2cc(OC3CCNCC3)ccc2-c2ncnc(N)c21` it is 230 nM. Still for that read-out and setting: under `C=C(c1ccc2c(c1)CC(C)(C)c1c(N)ncnc1-2)[C@H]1CC[C@H](NC)CC1` stands 45 nM. Take `C=C(c1ccc2c(c1)CC(C)(C)c1c(N)ncnc1-2)C12CC(C1)C2`: the IC50 in data set [1] came to 120 nM. As to `COc1ccc2c(c1)CC(C)(C)c1c(N)ncnc1-2`, the inhibition entry in data set [2] and in [3] was “Active” each time. This compound registered a half-inhibitory concentration (IC50) in data set [1] of 530 nM.

As for `CC1(C)Cc2cc(OCC(=O)O)ccc2-c2ncnc(N)c21`, the IC50 in data set [1] was 11000 nM. Take `C=C(c1ccc2c(c1)CC(C)(C)c1c(N)ncnc1-2)[C@H]1CC[C@H](N)CC1`: the half-life in [4] was 275 min. For the same compound, the logD in data set [5] amounted to 1.6. Besides, in data set [6], the CL/F came out at 191 mL/min/kg. Further, the inhibition result in [7] was “inactive”. In addition, the Cmax in data set [8] stood at 610 ng/mL. Moreover, the fraction unbound in data set [9] was found to be 0.065. The Tmax in [10] was 1.17 h. In addition, the inhibition entry in the data set on Mus musculus was “Active”. This compound yielded an AUC in data set [11] of 2580 ng·h/mL. This compound also registered an IC50 in [1] of 32 nM. In data set [1], `CC1(C)Cc2cc(C(=O)C3CCNCC3)ccc2-c2ncnc(N)c21` returned a concentration for half-maximal inhibition (IC50) of 300 nM. On the same count and under the same terms, under `Cc1ccc2c(c1)-c1ncnc(N)c1C(C)(C)C2` stands 2800 nM; under `CN(C)c1ncnc2c1C1(CCCC1)Cc1ccccc1-2`, more than 30000 nM; under `C=C(c1ccc2c(c1)CC(C)(C)c1c(N)ncnc1-2)C1CCNCC1`, 21 nM. As to `COC(=O)c1ccc2c(c1)CC(C)(C)c1c(N)ncnc1-2`, in [1], the midpoint of inhibition, the IC50, lay at 11000 nM.

Take `CC(=O)N1CCC(Oc2ccc3c(c2)CC(C)(C)c2c(N)ncnc2-3)CC1`: half-maximal inhibition in data set [1] (IC50) was put at 760 nM. `CC1(C)Cc2cc(-c3ccccc3)ccc2-c2ncnc(N)c21`: the IC50 in data set [1] stood at 1500 nM. Still for that read-out and setting: the figure for `Oc1ncnc2c1C1(CCCC1)Cc1ccccc1-2` is more than 30000 nM; for `c1ccc2c(c1)CC1(CCCC1)c1cncnc1-2` it is more than 30000 nM. The same measure, in the same setting: the figure for `CC1(C)Cc2ccccc2-c2ncnc(N)c21` is 4500 nM. As to `CC1(C)Cc2cc(OC3CCCNCC3)ccc2-c2ncnc(N)c21` (configuration not stated), it took 240 nM to reach half-maximal inhibition in [1] (IC50). Same read-out and setting: under `C=C(c1ccc2c(c1)CC(C)(C)c1c(N)ncnc1-2)[C@H]1CC[C@H](N(C)C)CC1` stands 110 nM. Take `CNc1ncnc2c1C1(CCCC1)Cc1ccccc1-2`: the IC50 in [1] is more than 30000 nM.

In the case of `CC1(C)Cc2cc(C3CCNCC3)ccc2-c2ncnc(N)c21`, half-maximal inhibition in [1] (IC50) required 810 nM. `C=C(c1ccc2c(c1)CC(C)(C)c1c(N)ncnc1-2)[C@H]1C[C@H](N)C1` gave an IC50 in [1] of 31 nM. Compared with the last compound, the IC50 is about 26-fold lower. Same read-out and setting: under `COc1ccc2c(c1)CC(C)(C)c1c(N)nc(C)nc1-2` stands more than 5000 nM; under `COc1ccc2c(c1)CC(C)(C)c1c-2noc1N`, more than 30000 nM. Take `Nc1ncnc2c1CCc1ccccc1-2`: the figures for the IC50 in data set [12] and in [1] were 57 µM and more than 30000 nM, respectively. For `Cc1cccc2c1CC(C)(C)c1c(N)ncnc1-2`, in data set [1], inhibition was half-maximal at 5000 nM (IC50). That is a single-digit micromolar value. `CCOc1ccc2c(c1)CC(C)(C)c1c(N)ncnc1-2` came in with an IC50 in data set [1] of 420 nM. On the same count and under the same terms, under `CC1(C)Cc2cc(OC3CCNC3)ccc2-c2ncnc(N)c21` (configuration not stated) stands 180 nM. Still for that read-out and setting: the figure for `Cc1cccc2c1-c1ncnc(N)c1C(C)(C)C2` is 4700 nM.
